According to ChEMBL document CHEMBL1151244, “Synthesis of A-seco derivatives of betulinic acid with cytotoxic activity” (J Nat Prod, 2004):

How the values were obtained:
Type in all cases: functional, cell-based
CCRF-CEM = assay: Cytotoxicity against human CEM cells after 72 hrs by MTT assay
HT-29 = assay: Cytotoxicity against human HT-29 cells after 72 hrs by MTT assay; details: HT-29, 72 h
K562 [1] = assay: Cytotoxicity against human K562 cells after 72 hrs by MTT assay; details: K562, 72 h
K562 [2] = assay: Cytotoxicity against paclitaxel-resistant human K562 cells after 72 hrs by MTT assay; details: K562, 72 h
PC-3 = assay: Cytotoxicity against human PC3 cells after 72 hrs by MTT assay; details: PC-3, 72 h
A549 = assay: Cytotoxicity against human A549 cells after 72 hrs by MTT assay; details: A549, 72 h
DU-145 = assay: Cytotoxicity against human DU145 cells after 72 hrs by MTT assay; details: DU-145, 72 h
MCF7 = assay: Cytotoxicity against human MCF7 cells after 72 hrs by MTT assay; details: MCF7, 72 h
SK-MEL-2 = assay: Cytotoxicity against human SK-MEL-2 cells after 72 hrs by MTT assay; details: SK-MEL-2, 72 h

Compound | IC50 (CCRF-CEM) | IC50 (HT-29) | IC50 (K562 [1]) | IC50 (K562 [2]) | IC50 (PC-3) | IC50 (A549) | IC50 (DU-145) | IC50 (MCF7) | IC50 (SK-MEL-2)
C=C(C)[C@@H]1CC[C@]2(C(=O)O)CC[C@]3(C)[C@H](CC[C@@H]4[C@@]5(C)CC[C@H](OC(C)=O)C(C)(C)[C@@H]5CC[C@]43C)[C@@H]12 | 200 µM | 24 µM | 18 µM | 19 µM | 17 µM | – | – | – | –
C=C(C)[C@@H]1CC[C@]2(C(=O)OC(C)=O)CC[C@]3(C)[C@H](CC[C@@H]4[C@@]5(C)CC[C@H](OC(C)=O)C(C)(C)[C@@H]5CC[C@]43C)[C@@H]12 | 22 µM | 110 µM | 88 µM | 108 µM | 93 µM | – | – | – | –
C=C(C)[C@@H]1CC[C@]2(C(=O)OC(C)=O)CC[C@]3(C)[C@H](CC[C@@H]4[C@@]5(C)CC(=O)OC(=O)C(C)(C)[C@@H]5CC[C@]43C)[C@@H]12 | 6 µM | – | – | – | – | – | – | – | –
C=C(C)[C@@H]1CC[C@]2(COC(C)=O)CC[C@]3(C)[C@H](CC[C@@H]4[C@@](C)(CCOC(C)=O)[C@H](C(C)(C)COC(C)=O)CC[C@]43C)[C@@H]12 | 250 µM | – | – | – | – | – | – | – | –
C=C(C)[C@@H]1CC[C@]2(C(=O)OC)CC[C@]3(C)[C@H](CC[C@@H]4[C@@]5(C)C=C(OC(C)=O)C(=O)C(C)(C)[C@@H]5CC[C@]43C)[C@@H]12 | 91 µM | 46 µM | 60 µM | 25 µM | 98 µM | – | – | – | –
C=C(C)[C@@H]1CC[C@]2(C(=O)O)CC[C@]3(C)[C@H](CC[C@@H]4[C@@](C)(CC(=O)O)[C@H](C(C)(C)C(=O)O)CC[C@]43C)[C@@H]12 | 250 µM | 219 µM | 145 µM | 250 µM | 169 µM | – | – | – | –
C=C(C)[C@@H]1CC[C@]2(C(=O)OC)CC[C@]3(C)[C@H](CC[C@@H]4[C@@]5(C)C=C(OC)C(=O)C(C)(C)[C@@H]5CC[C@]43C)[C@@H]12 | 5 µM | 19 µM | 11 µM | 10 µM | 20 µM | – | – | – | –
C=C(C)[C@@H]1CC[C@]2(C(=O)OC)CC[C@]3(C)[C@H](CC[C@@H]4[C@@]5(C)[C@@H](O)OC(=O)C(C)(C)[C@@H]5CC[C@]43C)[C@@H]12 | 250 µM | 65 µM | 119 µM | 85 µM | 116 µM | – | – | – | –
C=C(C)[C@@H]1CC[C@]2(C(=O)OC)CC[C@]3(C)[C@H](CC[C@@H]4[C@@](C)(CC(=O)O)[C@H](C(C)(C)C(=O)O)CC[C@]43C)[C@@H]12 | 113 µM | 88 µM | 77 µM | 75 µM | 63 µM | – | – | – | –
C=C(C)[C@@H]1CC[C@]2(CO)CC[C@]3(C)[C@H](CC[C@@H]4[C@@](C)(CCO)[C@H](C(C)(C)CO)CC[C@]43C)[C@@H]12 | 20 µM | 11 µM | 9 µM | 11 µM | 49 µM | – | – | – | –
C=C(C)[C@@H]1CC[C@]2(C(=O)O)CC[C@]3(C)[C@H](CC[C@@H]4[C@@]5(C)CC(=O)OC(=O)C(C)(C)[C@@H]5CC[C@]43C)[C@@H]12 | 101 µM | – | – | – | – | – | – | – | –
C=C(C)[C@@H]1CC[C@]2(C(=O)O)CC[C@]3(C)[C@H](CC[C@@H]4[C@@]5(C)C=C(OC(C)=O)C(=O)C(C)(C)[C@@H]5CC[C@]43C)[C@@H]12 | 20 µM | 7 µM | 5 µM | 16 µM | 11 µM | 11 µM | 18 µM | 17 µM | 24 µM
C=C(C)[C@@H]1CC[C@]2(C(=O)OC(=O)[C@]34CC[C@@H](C(=C)C)[C@@H]3[C@H]3CC[C@@H]5[C@@]6(C)CC[C@H](OC(C)=O)C(C)(C)[C@@H]6CC[C@@]5(C)[C@]3(C)CC4)CC[C@]3(C)[C@H](CC[C@@H]4[C@@]5(C)CC[C@H](OC(C)=O)C(C)(C)[C@@H]5CC[C@]43C)[C@@H]12 | 240 µM | 173 µM | 104 µM | 242 µM | 187 µM | – | – | – | –
C=C(C)[C@@H]1CC[C@]2(C(=O)OC)CC[C@]3(C)[C@H](CC[C@@H]4[C@@](C)(CC(=O)OC)[C@H](C(C)(C)C(=O)OC)CC[C@]43C)[C@@H]12 | 250 µM | 99 µM | 104 µM | 76 µM | 245 µM | – | – | – | –
C=C(C)[C@@H]1CC[C@]2(C(=O)OC)CC[C@]3(C)[C@H](CC[C@@H]4[C@@]5(C)CC[C@H](OC(C)=O)C(C)(C)[C@@H]5CC[C@]43C)[C@@H]12 | 16 µM | 250 µM | 250 µM | 250 µM | 250 µM | – | – | – | –
C=C(C)[C@@H]1CC[C@]2(C(=O)O)CC[C@]3(C)[C@H](CC[C@@H]4[C@@]5(C)C=C(O)C(=O)C(C)(C)[C@@H]5CC[C@]43C)[C@@H]12 | 4 µM | 6 µM | 6 µM | 11 µM | 10 µM | 10 µM | 23 µM | 14 µM | 23 µM
C=C(C)[C@@H]1CC[C@]2(C(=O)OC)CC[C@]3(C)[C@H](CC[C@@H]4[C@@]5(C)CC(=O)OC(=O)C(C)(C)[C@@H]5CC[C@]43C)[C@@H]12 | 7 µM | 12 µM | 29 µM | 12 µM | 89 µM | – | – | – | –
C=C(C)[C@@H]1CC[C@]2(C(=O)O)CC[C@]3(C)[C@H](CC[C@@H]4[C@@]5(C)[C@@H](O)OC(=O)C(C)(C)[C@@H]5CC[C@]43C)[C@@H]12 | 96 µM | 58 µM | 81 µM | 81 µM | 79 µM | – | – | – | –
C=C(C)[C@@H]1CC[C@]2(C(=O)OC)CC[C@]3(C)[C@H](CC[C@@H]4[C@@]5(C)C=C(O)C(=O)C(C)(C)[C@@H]5CC[C@]43C)[C@@H]12 | 23 µM | 6 µM | 8 µM | 8 µM | 10 µM | 11 µM | 9 µM | 6 µM | 11 µM
C=C(C)[C@@H]1CC[C@]2(C(=O)O)CC[C@]3(C)[C@H](CC[C@@H]4[C@@]5(C)CC[C@H](O)C(C)(C)[C@@H]5CC[C@]43C)[C@@H]12 [BETULINIC ACID] | 27 µM | 89 µM | 56 µM | 112 µM | 91 µM | 146 µM | 196 µM | 143 µM | 21 µM
C=C(C)[C@@H]1CC[C@]2(C(=O)O)CC[C@]3(C)[C@H](CC[C@@H]4[C@@]5(C)CCC(=O)C(C)(C)[C@@H]5CC[C@]43C)[C@@H]12 [BETUNOLIC ACID] | 17 µM | – | – | 17 µM | – | – | 36 µM | 29 µM | –
C=C(C)[C@@H]1CC[C@]2(C(=O)OC)CC[C@]3(C)[C@H](CC[C@@H]4[C@@]5(C)CC[C@H](O)C(C)(C)[C@@H]5CC[C@]43C)[C@@H]12 [METHYL BETULINATE] | 150 µM | 61 µM | 71 µM | 65 µM | 109 µM | – | – | – | –
C=C(C)[C@@H]1CC[C@]2(C(=O)OC)CC[C@]3(C)[C@H](CC[C@@H]4[C@@]5(C)CCC(=O)C(C)(C)[C@@H]5CC[C@]43C)[C@@H]12 [METHYL BETULONATE] | – | 250 µM | 239 µM | 250 µM | 250 µM | – | – | – | –
